Measured values published in patent publication US20210170033A1, “NOVEL CONJUGATES OF A PHARMACEUTICAL AGENT AND A MOIETY CAPABLE OF BINDING TO A GLUCOSE SENSING PROTEIN” (SANOFI, priority 2017, published 2021).

system: A2780 cells; assay: Deoxy-glucose uptake assay in A2780 cells (14C 2-deoxy-D-glucose transport); format: cell-based; details: Homo sapiens, 20 min; inhibition of 14C 2-deoxy-D-glucose transport into A2780 cells; 20 min compound incubation; read-out: IC50
Description: 1. Deoxy-Glucose Uptake Assay in A2780 Cells:
For measurement of ^14C 2-deoxy-D-glucose transport into A2780 cells, cells were seeded in 96-well plates (Cytostar-T Plates Perkin Elmer, 70,000 cells/180 μl/well) in medium complete (RPMI1640+Glutamax (Life technologies #61870)) and grown for 48 hours. After 48 h, cells were washed once with 180 μL KRB (Krebs Ringer Bicarbonate) buffer, and stimulated in a dose dependent manner by adding 10 μL of test compound dilution 0-1.1 mM (11 times higher concentration than final) or 10 μL of 1.1 mM Cytochalasin B solution as negative control, to 90 μL KRB buffer and incubated for 20 minutes. After compound stimulation, the transport of ^14C 2-deoxy-D-glucose was started by adding of 50 μL 2-^14C[U] 2-deoxy-D-glucose solution (109.1 μM 2-deoxy-D-glucose cold and 33 μM 2-^14C[U] 2-deoxy-D-glucose 0.1 μCi/well) for 20 minutes. Transport was stopped by adding 50 μL/well 96 μM Cytochalasin B solution. Plates were measured in a 96-well Wallac Microbeta device. The cpm (counts per minute) values were used to determine the % inhibition values for the test compounds within each experiment. In a first step, the mean background value generated by Cytochalasin B (a potent glucose transporter inhibitor) treated cells, was subtracted from the mean values of the treated cells. All mean values were obtained from triplicates. For %-Inhibition results, the mean value of the untreated cells (just KRB) was set as 100%. All other mean values were calculated to this relation. IC50 were obtained by regression analysis of dose response curve with 7 or 14 concentrations, respectively, for each compound.

Row | SMILES | IC50
1 | CO[C@@H]1O[C@H](CO)[C@@H](O)[C@H](O)[C@H]1NC(=O)c1cc(Cl)c(OCc2ccccc2)c(Cl)c1C [Example 337] | 36.4 µM
2 | CO[C@@H]1O[C@H](CO)[C@@H](O)[C@H](O)[C@H]1NC(=O)c1cc(Cl)c(OCc2ccccc2)c(Cl)c1 [Example 338] | 32.2 µM
3 | COc1cc(OCc2ccccc2)c(Cl)cc1C(=O)O[C@@H]1[C@@H](O)[C@@H](OC)O[C@H](CO)[C@H]1O [Example 350] | 18 µM
4 | COc1cc(OCc2cccc(CNC(=O)OC(C)(C)C)c2)c(Cl)cc1C(=O)N[C@H]1[C@@H](OC)O[C@H](CO)[C@@H](O)[C@@H]1O [Example 357] | 0.9 µM
5 | COc1cc(OCc2ccccc2)ccc1C(=O)N[C@H]1[C@@H](OC)O[C@H](CO)[C@@H](O)[C@@H]1O [Example 358] | 91.4 µM
6 | COc1cc(OCc2cccc(NC(=O)OC(C)(C)C)c2)c(Cl)cc1C(=O)N[C@H]1[C@@H](OC)O[C@H](CO)[C@@H](O)[C@@H]1O [Example 359] | 0.4 µM
7 | C#CCCCCCCCn1c(COc2c(Cl)cc(C(=O)N[C@H]3[C@@H](OC)O[C@H](CO)[C@@H](O)[C@@H]3O)c(C)c2Cl)nc2ccccc21 [Example 368] | 1.1 µM
8 | COC(=O)[C@H](CCC(=O)NCc1cccc(COc2cc(OC)c(C(=O)O[C@H]3[C@@H](OC)O[C@H](CO)[C@@H](O)[C@@H]3O)cc2Cl)c1)NC(=O)OC(C)(C)C [Example 369] | 11.2 µM
9 | COC(=O)[C@@H](N)CCCCNC(=O)CCCCCn1c(COc2c(Cl)cc(C(=O)N[C@H]3[C@@H](OC)O[C@H](CO)[C@@H](O)[C@@H]3O)c(C)c2Cl)nc2ccccc21 [Example 384] | 44.2 µM
10 | COC(=O)[C@H](CCCCNC(=O)CCC(=O)NCc1cccc(COc2cc(OC)c(C(=O)O[C@H]3[C@@H](OC)O[C@H](CO)[C@@H](O)[C@@H]3O)cc2Cl)c1)NC(=O)OC(C)(C)C [Example 385] | 22.3 µM
11 | COc1cc(OCc2ccc(OCC(=O)OC(C)(C)C)cc2)c(Cl)cc1C(=O)N[C@H]1[C@@H](OC)O[C@H](CO)[C@@H](O)[C@@H]1O [Example 387] | 2.6 µM
12 | COC(=O)[C@H](CCCCNC(=O)CNc1cc(COc2c(Cl)cc(C(=O)N[C@H]3[C@@H](OC)O[C@H](CO)[C@@H](O)[C@@H]3O)c(C)c2Cl)cnc1OC)NC(=O)OC(C)(C)C [Example 388] | 52.9 µM
13 | COc1cc(OCc2cccc(OCCCCCC(=O)OC(C)(C)C)c2)c(Cl)cc1C(=O)N[C@H]1[C@@H](OC)O[C@H](CO)[C@@H](O)[C@@H]1O [Example 394] | 4 µM
14 | COc1cc(OCc2ccc(OCC(=O)OC(C)(C)C)cc2)c(Cl)cc1C(=O)O[C@H]1[C@@H](OC)O[C@H](CO)[C@@H](O)[C@@H]1O [Example 395] | 1.5 µM
15 | COC(=O)c1cccn2cc(COc3cc(OC)c(C(=O)N[C@H]4[C@@H](OC)O[C@H](CO)[C@@H](O)[C@@H]4O)cc3Cl)nc12 [Example 396] | 17.3 µM
16 | COc1cc(OCc2cccc(OCCCCCC(=O)O)c2)c(Cl)cc1C(=O)N[C@H]1[C@@H](OC)O[C@H](CO)[C@@H](O)[C@@H]1O [Example 398] | 85.9 µM
17 | COC(=O)[C@H](CCCCNC(=O)COCCOCC(=O)NCc1cccc(COc2cc(OC)c(C(=O)O[C@H]3[C@@H](OC)O[C@H](CO)[C@@H](O)[C@@H]3O)cc2Cl)c1)NC(=O)OC(C)(C)C [Example 399] | 20.2 µM
18 | COc1cc(OCc2cccc(NC(=O)COCCOCC(=O)O)c2)c(Cl)cc1C(=O)O[C@H]1[C@@H](OC)O[C@H](CO)[C@@H](O)[C@@H]1O [Example 400] | 47.1 µM
19 | COC(=O)[C@H](CCCCNC(=O)CCCCCNC(=O)CCC(=O)NCc1cccc(COc2cc(OC)c(C(=O)O[C@H]3[C@@H](OC)O[C@H](CO)[C@@H](O)[C@@H]3O)cc2Cl)c1)NC(=O)OC(C)(C)C [Example 411] | 25.9 µM
20 | COC(=O)[C@H](CCCCNC(=O)CCCCCCC(=O)Nc1cccc(COc2cc(OC)c(C(=O)O[C@H]3[C@@H](OC)O[C@H](CO)[C@@H](O)[C@@H]3O)cc2Cl)c1)NC(=O)OC(C)(C)C [Example 414] | 0.7 µM
21 | COc1cc(OCc2nc3ccccc3n2CCCCCCCCCCCCCCCC(=O)O)c(Cl)cc1C(=O)N[C@H]1[C@@H](OC)O[C@H](CO)[C@@H](O)[C@@H]1O [Example 421] | 15.1 µM
22 | COc1cc(OCc2cccc(NC(=O)CCC(=O)OC(C)(C)C)c2)c(Cl)cc1C(=O)N[C@H]1[C@@H](OC)O[C@H](CO)[C@@H](O)[C@@H]1O [Example 428] | 4.4 µM
23 | COc1cc(OCc2cccc(NC(=O)CCCC(=O)OC(C)(C)C)c2)c(Cl)cc1C(=O)N[C@H]1[C@@H](OC)O[C@H](CO)[C@@H](O)[C@@H]1O [Example 429] | 2.9 µM
24 | COC(=O)[C@H](CCCCNC(=O)CCC(=O)NCc1cccc(COc2cc(OC)c(C(=O)N[C@H]3[C@@H](OC)O[C@H](CO)[C@@H](O)[C@@H]3O)cc2Cl)c1)NC(=O)OC(C)(C)C [Example 435] | 45.3 µM
25 | COC(=O)[C@H](CCCCNC(=O)CCCC(=O)NCc1cccc(COc2cc(OC)c(C(=O)N[C@H]3[C@@H](OC)O[C@H](CO)[C@@H](O)[C@@H]3O)cc2Cl)c1)NC(=O)OC(C)(C)C [Example 436] | 34.2 µM
26 | COC(=O)[C@H](CCCCNC(=O)CCCC(=O)Nc1cccc(COc2c(Cl)cc(C(=O)N[C@H]3[C@@H](OC)O[C@H](CO)[C@@H](O)[C@@H]3O)c(C)c2Cl)c1)NC(=O)OC(C)(C)C [Example 463] | 25.1 µM

The next lines start with the values.

Row | IC50 | SMILES
27 | 31 µM | CO[C@H]1O[C@H](CO)[C@@H](O)[C@H](O)[C@H]1OC(=O)c1cc(Cl)c(OCc2cccc(CNCCCC(=O)OC(C)(C)C)c2)c(Cl)c1C [Example 348]
28 | 27.4 µM | COc1cc(OCc2cccc(CNC(=O)CCC(=O)OC(C)(C)C)c2)c(Cl)cc1C(=O)O[C@@H]1[C@@H](O)[C@@H](OC)O[C@H](CO)[C@H]1O [Example 363]
29 | 7.1 µM | COc1cc(OCc2cccc(CNC(=O)CCC(=O)NCCCCCC(=O)OC(C)(C)C)c2)c(Cl)cc1C(=O)O[C@H]1[C@@H](OC)O[C@H](CO)[C@@H](O)[C@@H]1O [Example 390]
30 | 34.3 µM | COC(=O)[C@H](CCCCNC(=O)CCCC(=O)NCc1cccc(COc2cc(OC)c(C(=O)O[C@H]3[C@@H](OC)O[C@H](CO)[C@@H](O)[C@@H]3O)cc2Cl)c1)NC(=O)OC(C)(C)C [Example 391]
31 | 60.5 µM | COc1cc(OCc2cccc(CNC(=O)CCC(=O)NCCCCCC(=O)O)c2)c(Cl)cc1C(=O)O[C@H]1[C@@H](OC)O[C@H](CO)[C@@H](O)[C@@H]1O [Example 405]
32 | 45 µM | COc1cc(OCc2cccc(CNC(=O)CCCCCCC(=O)O)c2)c(Cl)cc1C(=O)O[C@H]1[C@@H](OC)O[C@H](CO)[C@@H](O)[C@@H]1O [Example 408]
33 | 60.5 µM | COc1cc(OCc2cccc(CNC(=O)CCCCCCCCC(=O)OC(C)(C)C)c2)c(Cl)cc1C(=O)N[C@H]1[C@@H](OC)O[C@H](CO)[C@@H](O)[C@@H]1O [Example 427]
34 | 6.1 µM | COc1cc(OCc2cccc(NC(=O)CCCCCCCCC(=O)OC(C)(C)C)c2)c(Cl)cc1C(=O)N[C@H]1[C@@H](OC)O[C@H](CO)[C@@H](O)[C@@H]1O [Example 431]
35 | 30.6 µM | COc1c(C(=O)N[C@H]2[C@H](OC)O[C@H](CO)[C@@H](O)[C@@H]2O)cc(Cl)c(OCc2cccc(CNC(=O)OC(C)(C)C)c2)c1Cl [Example 447]
36 | 18.5 µM | CO[C@H]1O[C@H](CO)[C@@H](O)[C@H](O)[C@H]1NC(=O)c1cc(Cl)c(OCc2cccc(CNC(=O)CCC(=O)OC(C)(C)C)c2)c(Cl)c1C [Example 449]
37 | 25.8 µM | CO[C@H]1O[C@H](CO)[C@@H](O)[C@H](O)[C@H]1NC(=O)c1cc(Cl)c(OCc2cccc(CNC(=O)CCCC(=O)OC(C)(C)C)c2)c(Cl)c1C [Example 450]
38 | 25.6 µM | CO[C@H]1O[C@H](CO)[C@@H](O)[C@H](O)[C@H]1NC(=O)c1cc(Cl)c(OCc2cccc(NC(=O)CCCCCCC(=O)OC(C)(C)C)c2)c(Cl)c1C [Example 454]
39 | 25 µM | CO[C@H]1O[C@H](CO)[C@@H](O)[C@H](O)[C@H]1OC(=O)c1cc(Cl)c(OCc2cccc(CNC(=O)CCCCCCCCC(=O)OC(C)(C)C)c2)c(Cl)c1C [Example 456]
40 | 31.7 µM | COc1cc(OCc2cccc(CNC(=O)CCCCCCC(=O)NCCCCCC(=O)OC(C)(C)C)c2)c(Cl)cc1C(=O)N[C@H]1[C@@H](OC)O[C@H](CO)[C@@H](O)[C@@H]1O [Example 457]
41 | 84.6 µM | COC(=O)[C@H](CCCCNC(=O)CCCC(=O)NCc1cccc(COc2c(Cl)cc(C(=O)N[C@H]3[C@@H](OC)O[C@H](CO)[C@@H](O)[C@@H]3O)c(C)c2Cl)c1)NC(=O)OC(C)(C)C [Example 460]
42 | 44 µM | COC(=O)[C@H](CCCCNC(=O)CCCCCCC(=O)Nc1cccc(COc2c(Cl)cc(C(=O)N[C@H]3[C@@H](OC)O[C@H](CO)[C@@H](O)[C@@H]3O)c(C)c2Cl)c1)NC(=O)OC(C)(C)C [Example 464]
43 | 49.9 µM | COC(=O)[C@H](CCCCNC(=O)CCCCCCCCC(=O)Nc1cccc(COc2c(Cl)cc(C(=O)N[C@H]3[C@@H](OC)O[C@H](CO)[C@@H](O)[C@@H]3O)c(C)c2Cl)c1)NC(=O)OC(C)(C)C [Example 465]
44 | 3.4 µM | COc1cc(OCc2cccc(NC(=O)CCCCCCC(=O)NCCCCCC(=O)OC(C)(C)C)c2)c(Cl)cc1C(=O)N[C@H]1[C@@H](OC)O[C@H](CO)[C@@H](O)[C@@H]1O [Example 466]
